Experimental data from ChEMBL document CHEMBL1130989, “Design and synthesis of bio-isosteres of thymidine triphosphate” (Bioorg Med Chem Lett, 1998).

Tests used:
[1] = system: CCRF-CEM; experiment: Dose required for no significant anti-HIV activity against HIV-1 in human lymphocyte CEM cells; format: functional, cell-based
[2] = system: CCRF-CEM; experiment: Dose required for no significant anti-HIV activity against HIV-2 in human lymphocyte CEM cells; format: functional, cell-based
[3] = biological target: Human immunodeficiency virus type 1 reverse transcriptase (Human immunodeficiency virus 1, UniProt Q72547); experiment: Concentration required for no significant inhibitory activity against HIV-1 reverse transcriptase

EC50 [1] [µM] | EC50 [2] [µM] | IC50 [3] [µM] | SMILES
> 200 | > 200 | > 500 | Cc1cn(C2C=CC(CNC(=O)CC3(C)CC(O[Si](c4ccccc4)(c4ccccc4)C(C)(C)C)CN3C(=O)OC(C)(C)C)O2)c(=O)[nH]c1=O (stereo not given)
> 200 | > 200 | > 500 | Cc1cn(C2CC(O)C(CNC(=O)CC3(C)CC(O)CN3)O2)c(=O)[nH]c1=O (stereo not given)
> 200 | > 200 | > 500 | Cc1cn(C2C=CC(CNC(=O)CC3(C)CC(O)CN3)O2)c(=O)[nH]c1=O (stereo not given)
> 200 | > 200 | > 500 | Cc1cn(C2C=CC(CNC(=O)CC3(C)CC(O)CN3C(=O)OC(C)(C)C)O2)c(=O)[nH]c1=O (stereo not given)
> 200 | > 200 | > 500 | Cc1cn(C2CC(O[Si](C)(C)C(C)(C)C)C(CNC(=O)CC3(C)CC(O[Si](c4ccccc4)(c4ccccc4)C(C)(C)C)CN3C(=O)OC(C)(C)C)O2)c(=O)[nH]c1=O (stereo not given)
